Reference: patent publication US20210290606A1, “METHOD TO PREVENT AND TREAT OSTEOARTHRITIS BY CALCIUM CHANNEL BLOCKERS, ANGIOTENSIN CONVERTING ENZYME INHIBITORS, AND ANGIOTENSIN RECEPTOR BLOCKERS” (priority 2018, published 2021)
Read-outs that look alike come from different tables or passages of the source.

Tests used:
osteoarthritis [1] = settings: cited from earlier work; for clinical difference between the high potency narcotics and tramadol: human, in vivo
osteoarthritis [2] = settings: 6 trials, 1501 participants, cited from earlier work
[3] = tested on: osteoarthritis syndrome in both knees; test: Composition applied to the skin in the region of one knee, other knee left untreated; format: in vivo, human; settings: patient, topical application to skin in the region of one knee
Source text: A patient is diagnosed with osteoarthritis syndrome in both knees.
A patient is diagnosed with osteoarthritis syndrome in both knees. A composition comprising the ACE inhibitor enalapril is directly applied to the skin in the region of one knee while the other knee is left untreated.
A patient is diagnosed with osteoarthritis syndrome in both knees. A composition comprising the angiotensin receptor blocker losartan is directly applied to the skin in the region of one knee while the other knee is left untreated.

[4] = tested on: osteoarthritis syndrome in both knees; test: Composition given by intra-articular injection in one knee, other knee left untreated; format: in vivo, human; settings: patient
Protocol: A patient is diagnosed with osteoarthritis syndrome in both knees. […] A patient is diagnosed with osteoarthritis syndrome in both knees. A composition comprising the ACE inhibitor enalapril is administered by intra-articular injection in one knee while the other knee is left untreated. […] A patient is diagnosed with osteoarthritis syndrome in both knees. A composition comprising the angiotensin receptor blocker losartan is administered by intra-articular injection in one knee while the other knee is left untreated.

N[C@H]1C(O)O[C@H](CO)[C@@H](O)[C@@H]1O.O=S(=O)(O)O (stereo partly shown) [glucosamine sulfate]
pain and function (osteoarthritis [1]; industry-sponsored study of 604 patients): statistical significant reduction in pain and increase in function
effect versus placebo (osteoarthritis [1]; meta-analysis of 25 randomized placebo controlled clinical trials, 3458 patients): failed to find any significant effects
preventive effect on osteoarthritis (osteoarthritis [2]; after 3 years, benefit clinically irrelevant): small statistical effect
preventive effect on osteoarthritis (osteoarthritis [2]; after one year): no preventive effect

CCOC(=O)[C@H](CCc1ccccc1)N[C@@H](C)C(=O)N1CCC[C@H]1C(=O)O [enalapril]
symptoms of osteoarthritis syndrome, treated knee versus untreated knee [3]: reduced symptoms of osteoarthritis syndrome
symptoms of osteoarthritis syndrome, treated knee versus untreated knee [4]: reduced symptoms of osteoarthritis syndrome

COc1ccc2c3c1O[C@H]1C(=O)CC[C@@]4(O)[C@@H](C2)N(C)CC[C@]314 [oxycodone]
clinical difference between the high potency narcotics and tramadol (osteoarthritis [1]): no clinically observable difference

chondroitin sulfate
effect on pain and function (osteoarthritis [1]; meta-analysis of 20 randomized clinical studies, 3846 patients, called negligible): 0.003%

CC(=O)Nc1ccc(O)cc1 [Tylenol]
clinical effect (osteoarthritis [1]; meta-analysis of 74 randomized clinical trials, 58556 patients): did not have a clinically relevant effect

CCCCc1nc(Cl)c(CO)n1Cc1ccc(-c2ccccc2-c2nn[nH]n2)cc1 [losartan]
symptoms of osteoarthritis syndrome, treated knee versus untreated knee [3]: reduced symptoms of osteoarthritis syndrome
symptoms of osteoarthritis syndrome, treated knee versus untreated knee [4]: reduced symptoms of osteoarthritis syndrome

CN1CC[C@]23c4c5ccc(O)c4O[C@H]2[C@@H](O)C=C[C@H]3[C@H]1C5 [morphine]
clinical difference between the high potency narcotics and tramadol (osteoarthritis [1]): no clinically observable difference

COc1cccc(C2(O)CCCCC2CN(C)C)c1 (stereo not shown) [tramadol]
clinical difference between the high potency narcotics and tramadol (osteoarthritis [1]): no clinically observable difference
